Measured values from the NIST ThermoML archive (doi:10.1016/j.jct.2004.08.004).
Numbers after ± are expanded uncertainties.

Details: Liquid, Transpiration method

Structure (SMILES) | vapor or sublimation pressure (295.2 K) [kPa] | vapor or sublimation pressure (319.2 K) [kPa] | vapor or sublimation pressure (322.2 K) [kPa] | vapor or sublimation pressure (298.2 K) [kPa] | vapor or sublimation pressure (307.2 K) [kPa] | vapor or sublimation pressure (327.2 K) [kPa] | vapor or sublimation pressure (336.2 K) [kPa] | vapor or sublimation pressure (339.2 K) [kPa] | vapor or sublimation pressure (342.1 K) [kPa] | vapor or sublimation pressure (345.2 K) [kPa] | vapor or sublimation pressure (351.2 K) [kPa] | vapor or sublimation pressure (354.2 K) [kPa] | vapor or sublimation pressure (357.2 K) [kPa] | vapor or sublimation pressure (360.2 K) [kPa] | vapor or sublimation pressure (363.2 K) [kPa] | vapor or sublimation pressure (366.2 K) [kPa] | vapor or sublimation pressure (369.1 K) [kPa] | vapor or sublimation pressure (372.1 K) [kPa] | vapor or sublimation pressure (301.2 K) [kPa] | vapor or sublimation pressure (348.2 K) [kPa] | also measured
CCCCCCCCCC#N [1-decanenitrile] | 0.00359 ± 0.00018 | 0.02728 ± 0.0014 | 0.03317 ± 0.0017 | – | – | – | – | – | – | – | – | – | – | – | – | – | – | – | – | – | vapor or sublimation pressure (298.3 K): 0.00484 ± 0.00024 kPa; vapor or sublimation pressure (302.2 K): 0.00692 ± 0.00035 kPa; vapor or sublimation pressure (305.6 K): 0.00928 ± 0.00046 kPa; vapor or sublimation pressure (308.7 K): 0.01188 ± 0.00059 kPa; vapor or sublimation pressure (311.7 K): 0.01511 ± 0.00076 kPa; vapor or sublimation pressure (313.1 K): 0.01667 ± 0.00083 kPa; vapor or sublimation pressure (315.2 K): 0.01966 ± 0.00098 kPa; vapor or sublimation pressure (316.2 K): 0.02172 ± 0.0011 kPa; vapor or sublimation pressure (326.3 K): 0.04574 ± 0.0023 kPa
CCCCCCCCCCC#N [1-decylcyanide] | – | 0.00877 ± 0.00045 | 0.0113 ± 0.00058 | 0.00131 ± 7e-05 | 0.00308 ± 0.00015 | 0.01646 ± 0.00082 | – | – | – | – | – | – | – | – | – | – | – | – | – | – | vapor or sublimation pressure (290.3 K): 0.00062 ± 3e-05 kPa; vapor or sublimation pressure (305.2 K): 0.00255 ± 0.00013 kPa; vapor or sublimation pressure (309.2 K): 0.00374 ± 0.00019 kPa; vapor or sublimation pressure (310.2 K): 0.00402 ± 0.0002 kPa; vapor or sublimation pressure (313.2 K): 0.0051 ± 0.00026 kPa; vapor or sublimation pressure (314.2 K): 0.00577 ± 0.00029 kPa; vapor or sublimation pressure (319.1 K): 0.00834 ± 0.00043 kPa; vapor or sublimation pressure (322.1 K): 0.01069 ± 0.00055 kPa; vapor or sublimation pressure (325.2 K): 0.0144 ± 0.00073 kPa; vapor or sublimation pressure (325.3 K): 0.01379 ± 0.0007 kPa; vapor or sublimation pressure (328.2 K): 0.01792 ± 0.0009 kPa; vapor or sublimation pressure (331.3 K): 0.02254 ± 0.0011 kPa; vapor or sublimation pressure (332.2 K): 0.02447 ± 0.0012 kPa; vapor or sublimation pressure (334.2 K): 0.02763 ± 0.0014 kPa; vapor or sublimation pressure (337.2 K): 0.03454 ± 0.0017 kPa; vapor or sublimation pressure (337.3 K): 0.03505 ± 0.0018 kPa; vapor or sublimation pressure (340.3 K): 0.04264 ± 0.0021 kPa
CCCCCCCCCCCCCCC#N [1-tetradecyl cyanide] | – | – | – | – | – | – | 0.00105 ± 5e-05 | 0.00137 ± 7e-05 | 0.00176 ± 9e-05 | 0.00219 ± 0.00011 | 0.00356 ± 0.00018 | 0.00459 ± 0.00023 | 0.00567 ± 0.00028 | 0.00704 ± 0.00035 | 0.00901 ± 0.00045 | 0.01122 ± 0.00056 | 0.0138 ± 0.00069 | 0.017 ± 0.00085 | – | – | vapor or sublimation pressure (348.1 K): 0.00287 ± 0.00014 kPa
CCCCCCCCCCCCC#N [dodecanecarbonitrile] | – | – | – | – | – | 0.0028 ± 0.00014 | 0.00594 ± 0.0003 | 0.00754 ± 0.00038 | 0.0095 ± 0.00048 | 0.01168 ± 0.00058 | 0.01796 ± 0.0009 | 0.02244 ± 0.0011 | 0.02764 ± 0.0014 | 0.03471 ± 0.0017 | 0.04232 ± 0.0021 | – | – | – | 0.00024 ± 1e-05 | 0.01466 ± 0.00073 | vapor or sublimation pressure (313.3 K): 0.00075 ± 4e-05 kPa; vapor or sublimation pressure (318.1 K): 0.0012 ± 6e-05 kPa; vapor or sublimation pressure (324.1 K): 0.00205 ± 0.0001 kPa; vapor or sublimation pressure (330.2 K): 0.00364 ± 0.00018 kPa; vapor or sublimation pressure (333.1 K): 0.00466 ± 0.00023 kPa
CCCCCCCCCCCCCCCCC#N [heptadecanenitrile] | – | – | – | – | – | – | – | – | – | – | 0.00072 ± 4e-05 | 0.00093 ± 5e-05 | 0.00117 ± 6e-05 | 0.00156 ± 8e-05 | 0.00201 ± 0.0001 | 0.00252 ± 0.00013 | 0.00316 ± 0.00016 | 0.00402 ± 0.0002 | – | 0.00055 ± 3e-05 | vapor or sublimation pressure (376.2 K): 0.00532 ± 0.00027 kPa; vapor or sublimation pressure (379.2 K): 0.00678 ± 0.00034 kPa; vapor or sublimation pressure (382.2 K): 0.00824 ± 0.00041 kPa; vapor or sublimation pressure (385.2 K): 0.01022 ± 0.00051 kPa
CCCCCCC#N [heptanenitrile] | 0.09393 ± 0.0047 | – | – | 0.1138 ± 0.0057 | 0.2092 ± 0.011 | – | – | – | – | – | – | – | – | – | – | – | – | – | 0.1417 ± 0.0071 | – | vapor or sublimation pressure (280.2 K): 0.02893 ± 0.0014 kPa; vapor or sublimation pressure (283.2 K): 0.03746 ± 0.0019 kPa; vapor or sublimation pressure (286.2 K): 0.04773 ± 0.0024 kPa; vapor or sublimation pressure (289.2 K): 0.05977 ± 0.003 kPa; vapor or sublimation pressure (292.2 K): 0.07501 ± 0.0037 kPa; vapor or sublimation pressure (304.2 K): 0.1723 ± 0.0086 kPa
